Test results reported in ChEMBL document CHEMBL1201862, “PubChem BioAssay data set” (2004).
The source made the active and inactive calls.

How the values were obtained:
[1] = Luminescence Cell-Based Dose Confirmation HTS to Identify Inhibitors of Platelet Dense Granule Release. [Related pubchem assays: 1663 (Primary HTS), 1678 (Summary of Project)]; type: functional
[2] = target: T1, High affinity choline transporter 1 (Homo sapiens, UniProt Q9GZV3); assay: CHT activators, dose response, cell-based, 10-point CRC, membrane potential dye (AID 602376); type: functional
T1 sequence (Q9GZV3 whole entry): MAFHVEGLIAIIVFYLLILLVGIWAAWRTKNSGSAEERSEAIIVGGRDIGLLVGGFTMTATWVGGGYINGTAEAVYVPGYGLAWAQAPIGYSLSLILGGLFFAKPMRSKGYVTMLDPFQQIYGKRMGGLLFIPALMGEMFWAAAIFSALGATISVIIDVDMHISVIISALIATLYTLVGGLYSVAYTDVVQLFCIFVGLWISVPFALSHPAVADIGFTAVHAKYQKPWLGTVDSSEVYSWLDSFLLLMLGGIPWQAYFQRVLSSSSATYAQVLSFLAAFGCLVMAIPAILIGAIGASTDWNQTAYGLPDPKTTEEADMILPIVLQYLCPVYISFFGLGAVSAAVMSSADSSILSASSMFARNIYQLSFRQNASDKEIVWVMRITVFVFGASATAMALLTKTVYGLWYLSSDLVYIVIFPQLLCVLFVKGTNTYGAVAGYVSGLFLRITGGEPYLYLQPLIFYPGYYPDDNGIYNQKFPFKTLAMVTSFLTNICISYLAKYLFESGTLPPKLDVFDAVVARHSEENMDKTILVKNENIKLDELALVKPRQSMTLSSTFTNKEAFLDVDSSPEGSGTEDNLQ

[3] = target: Luciferin 4-monooxygenase (Photinus pyralis, UniProt P08659); assay: firefly luciferase enzyme inhibitors, dose response, biochemical, luminescence (AID 1891)
[4] = target: LIM domain kinase 1 (Homo sapiens, UniProt P53667); assay: Navigating the Kinome. Panel member name: LIMK1; type: functional
[5] = target: Serine/threonine-protein kinase Chk1 (Homo sapiens, UniProt O14757); type: functional;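 also: measured as one member of a kinome-wide kinase profiling panel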
[6] = target: T2, Serine/threonine-protein kinase Nek2 (Homo sapiens, UniProt P51955); type: functional
T2 sequence (P51955 whole entry): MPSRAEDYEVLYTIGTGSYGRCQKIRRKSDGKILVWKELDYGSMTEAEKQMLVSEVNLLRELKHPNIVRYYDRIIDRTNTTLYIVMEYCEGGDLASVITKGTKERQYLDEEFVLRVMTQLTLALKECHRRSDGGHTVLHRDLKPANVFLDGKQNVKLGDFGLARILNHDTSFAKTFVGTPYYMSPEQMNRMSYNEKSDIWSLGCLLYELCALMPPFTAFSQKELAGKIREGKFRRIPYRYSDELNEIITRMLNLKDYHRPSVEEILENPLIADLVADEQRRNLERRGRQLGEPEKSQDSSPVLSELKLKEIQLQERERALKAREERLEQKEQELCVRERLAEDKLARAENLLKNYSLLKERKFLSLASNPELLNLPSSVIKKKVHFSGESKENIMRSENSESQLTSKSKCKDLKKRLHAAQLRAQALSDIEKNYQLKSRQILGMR

[7] = target: Cyclin-dependent kinase 8 (Homo sapiens, UniProt P49336); assay: Navigating the Kinome. Panel member name: CDK8; type: functional
[8] = cytotoxicity in HEK-293T cells, dose response, cytotoxicity control for BCR NF-kB inhibitor project, luminescence, B-cell screen hits (AID 489021); type: functional, cell-based;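 also: HEK-293T cells carrying an NF-kB luciferase reporter; cells exposed to compound for about 14 hours before viability readout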
[9] = target: Melanin-concentrating hormone receptor 1 (Homo sapiens, UniProt Q99705); assay: Late-stage fluorescence-based counterscreen for antagonists of the G-protein coupled receptor 7 (GPR7): cell-based dose response assay to identify antagonists of the melanin-concentrating hormone receptor 1 (MCHR1) Set 5.; type: functional
[10] = target: T3, Caspase-3 (Homo sapiens, UniProt P42574); assay: SAR Analysis of small molecule inhibitors of Sentrin-specific proteases (SENPs) using a Caspase-3 Selectivity assay. [Related pubchem assays (depositor defined):AID2540, AID2599, AID434973, AID489001]; type: functional
T3 sequence (P42574 whole entry): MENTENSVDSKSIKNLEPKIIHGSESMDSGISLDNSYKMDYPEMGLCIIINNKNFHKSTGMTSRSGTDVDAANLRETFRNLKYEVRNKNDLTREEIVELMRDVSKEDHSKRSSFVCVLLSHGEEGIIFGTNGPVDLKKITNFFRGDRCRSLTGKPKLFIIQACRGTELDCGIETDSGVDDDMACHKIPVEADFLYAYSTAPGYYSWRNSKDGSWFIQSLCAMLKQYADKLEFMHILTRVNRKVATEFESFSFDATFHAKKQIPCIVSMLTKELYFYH

[11] = target: T4, Sentrin-specific protease 7 (Homo sapiens, UniProt Q9BQF6); assay: SENP7 protease inhibitors, SAR follow-up, biochemical, luminescence (AID 504497); type: functional
T4 sequence (Q9BQF6 whole entry): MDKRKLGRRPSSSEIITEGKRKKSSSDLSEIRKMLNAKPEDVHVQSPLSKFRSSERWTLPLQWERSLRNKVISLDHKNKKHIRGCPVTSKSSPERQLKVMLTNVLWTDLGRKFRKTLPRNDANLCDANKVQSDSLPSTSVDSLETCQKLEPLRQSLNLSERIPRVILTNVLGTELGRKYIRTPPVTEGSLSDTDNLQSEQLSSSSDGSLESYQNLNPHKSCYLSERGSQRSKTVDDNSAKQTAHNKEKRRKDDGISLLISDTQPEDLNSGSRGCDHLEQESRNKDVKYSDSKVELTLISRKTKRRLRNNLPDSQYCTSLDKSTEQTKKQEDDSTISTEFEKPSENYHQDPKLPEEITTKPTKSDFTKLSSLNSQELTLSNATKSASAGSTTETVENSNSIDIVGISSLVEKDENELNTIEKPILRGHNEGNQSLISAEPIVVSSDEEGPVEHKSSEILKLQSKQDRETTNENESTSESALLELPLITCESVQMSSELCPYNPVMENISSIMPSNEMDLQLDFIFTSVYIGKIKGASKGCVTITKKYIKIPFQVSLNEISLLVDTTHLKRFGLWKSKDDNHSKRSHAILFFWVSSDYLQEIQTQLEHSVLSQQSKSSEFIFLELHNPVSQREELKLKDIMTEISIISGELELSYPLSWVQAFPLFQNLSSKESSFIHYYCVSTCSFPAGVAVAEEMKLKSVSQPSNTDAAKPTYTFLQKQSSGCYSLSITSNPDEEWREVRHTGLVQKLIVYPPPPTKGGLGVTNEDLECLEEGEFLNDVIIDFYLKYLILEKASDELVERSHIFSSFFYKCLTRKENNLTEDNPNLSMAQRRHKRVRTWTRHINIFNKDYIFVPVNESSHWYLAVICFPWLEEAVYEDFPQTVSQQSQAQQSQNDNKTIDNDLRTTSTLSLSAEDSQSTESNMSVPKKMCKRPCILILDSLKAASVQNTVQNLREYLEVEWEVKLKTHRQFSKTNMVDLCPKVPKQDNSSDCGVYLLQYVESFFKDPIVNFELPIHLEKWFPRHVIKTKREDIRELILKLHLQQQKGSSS

[12] = target: T5, Sentrin-specific protease 6 (Homo sapiens, UniProt Q9GZR1); assay: SAR Analysis of small molecule inhibitors of Sentrin-specific protease 6 (SENP6) using a Luminescent assay. [Related pubchem assays (depositor defined):AID2582, AID2599]; type: functional
T5 sequence (Q9GZR1 whole entry): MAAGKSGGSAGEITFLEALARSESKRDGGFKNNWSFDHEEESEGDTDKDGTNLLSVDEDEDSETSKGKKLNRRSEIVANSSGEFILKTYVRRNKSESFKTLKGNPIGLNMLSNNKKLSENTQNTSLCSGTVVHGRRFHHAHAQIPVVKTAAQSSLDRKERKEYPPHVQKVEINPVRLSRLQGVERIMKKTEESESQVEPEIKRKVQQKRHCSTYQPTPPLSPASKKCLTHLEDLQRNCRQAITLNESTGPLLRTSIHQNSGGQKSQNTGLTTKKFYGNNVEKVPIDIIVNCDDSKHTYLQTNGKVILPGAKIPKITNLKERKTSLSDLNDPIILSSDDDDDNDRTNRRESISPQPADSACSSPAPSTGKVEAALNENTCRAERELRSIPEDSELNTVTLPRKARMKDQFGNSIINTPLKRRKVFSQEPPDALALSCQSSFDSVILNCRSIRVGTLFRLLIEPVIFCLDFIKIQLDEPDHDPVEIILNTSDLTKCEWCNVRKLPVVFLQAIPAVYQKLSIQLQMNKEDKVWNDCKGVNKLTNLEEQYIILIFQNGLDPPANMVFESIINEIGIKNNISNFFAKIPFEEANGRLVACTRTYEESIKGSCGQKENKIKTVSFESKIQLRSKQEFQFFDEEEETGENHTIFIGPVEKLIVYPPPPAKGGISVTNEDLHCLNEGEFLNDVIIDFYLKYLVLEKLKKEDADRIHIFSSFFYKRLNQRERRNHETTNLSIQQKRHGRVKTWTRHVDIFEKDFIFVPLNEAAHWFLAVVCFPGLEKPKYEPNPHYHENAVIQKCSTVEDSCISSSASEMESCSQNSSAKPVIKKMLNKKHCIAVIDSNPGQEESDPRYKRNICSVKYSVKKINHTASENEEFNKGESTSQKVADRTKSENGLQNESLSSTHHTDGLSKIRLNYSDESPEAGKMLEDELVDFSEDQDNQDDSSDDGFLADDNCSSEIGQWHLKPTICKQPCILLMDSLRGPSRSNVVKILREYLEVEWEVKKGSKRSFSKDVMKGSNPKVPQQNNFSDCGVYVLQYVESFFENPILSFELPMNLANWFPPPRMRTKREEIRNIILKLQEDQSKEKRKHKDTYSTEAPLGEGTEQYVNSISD

[13] = target: T6, Sentrin-specific protease 8 (Homo sapiens, UniProt Q96LD8); assay: SENP8 protease inhibitors, SAR follow-up, biochemical, luminescence (AID 504501); type: functional
T6 sequence (Q96LD8 whole entry): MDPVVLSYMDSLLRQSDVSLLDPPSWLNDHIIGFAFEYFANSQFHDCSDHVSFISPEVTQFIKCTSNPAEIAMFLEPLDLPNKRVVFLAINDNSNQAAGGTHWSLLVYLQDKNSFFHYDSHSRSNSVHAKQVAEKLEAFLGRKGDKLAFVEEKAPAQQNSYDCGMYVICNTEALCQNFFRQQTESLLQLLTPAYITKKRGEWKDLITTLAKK

Luciferin 4-monooxygenase, sequence (P08659 whole entry, the tested form may be a part): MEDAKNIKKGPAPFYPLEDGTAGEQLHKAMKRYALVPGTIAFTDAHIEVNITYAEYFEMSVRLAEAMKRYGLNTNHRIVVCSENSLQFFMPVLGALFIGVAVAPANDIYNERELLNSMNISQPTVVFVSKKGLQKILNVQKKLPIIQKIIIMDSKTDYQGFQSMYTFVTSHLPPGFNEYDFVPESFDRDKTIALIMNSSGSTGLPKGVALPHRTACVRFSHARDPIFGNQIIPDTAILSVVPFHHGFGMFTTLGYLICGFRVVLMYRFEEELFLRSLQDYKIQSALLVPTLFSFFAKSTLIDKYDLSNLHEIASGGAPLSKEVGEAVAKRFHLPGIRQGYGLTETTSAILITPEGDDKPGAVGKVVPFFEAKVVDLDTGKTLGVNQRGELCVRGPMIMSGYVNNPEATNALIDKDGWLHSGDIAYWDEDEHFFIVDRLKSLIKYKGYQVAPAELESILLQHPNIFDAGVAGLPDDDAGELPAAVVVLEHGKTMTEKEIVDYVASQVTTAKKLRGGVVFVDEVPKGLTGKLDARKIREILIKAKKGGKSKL
Melanin-concentrating hormone receptor 1, sequence (Q99705 whole entry): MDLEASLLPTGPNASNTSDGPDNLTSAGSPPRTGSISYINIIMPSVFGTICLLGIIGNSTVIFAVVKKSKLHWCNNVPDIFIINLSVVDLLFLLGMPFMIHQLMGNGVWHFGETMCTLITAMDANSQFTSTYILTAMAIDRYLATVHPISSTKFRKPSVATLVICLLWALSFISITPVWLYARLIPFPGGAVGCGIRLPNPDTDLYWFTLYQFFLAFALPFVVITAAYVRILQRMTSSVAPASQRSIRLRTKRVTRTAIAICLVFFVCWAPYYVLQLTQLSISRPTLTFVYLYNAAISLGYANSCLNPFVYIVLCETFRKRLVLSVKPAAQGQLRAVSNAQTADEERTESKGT
Serine/threonine-protein kinase Chk1, sequence (O14757 whole entry): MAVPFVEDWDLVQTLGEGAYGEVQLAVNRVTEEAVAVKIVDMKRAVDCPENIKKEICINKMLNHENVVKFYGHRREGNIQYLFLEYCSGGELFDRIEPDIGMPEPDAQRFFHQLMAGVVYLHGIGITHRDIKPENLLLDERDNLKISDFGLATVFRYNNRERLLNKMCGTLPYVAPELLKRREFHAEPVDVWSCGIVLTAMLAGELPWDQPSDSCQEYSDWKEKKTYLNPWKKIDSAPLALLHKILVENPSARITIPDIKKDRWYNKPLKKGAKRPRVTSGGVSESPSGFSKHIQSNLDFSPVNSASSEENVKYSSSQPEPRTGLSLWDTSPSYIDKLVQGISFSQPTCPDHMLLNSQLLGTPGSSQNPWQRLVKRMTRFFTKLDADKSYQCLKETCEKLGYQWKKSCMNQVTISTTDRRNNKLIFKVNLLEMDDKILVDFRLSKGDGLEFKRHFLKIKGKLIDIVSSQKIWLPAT
Cyclin-dependent kinase 8, sequence (P49336 whole entry): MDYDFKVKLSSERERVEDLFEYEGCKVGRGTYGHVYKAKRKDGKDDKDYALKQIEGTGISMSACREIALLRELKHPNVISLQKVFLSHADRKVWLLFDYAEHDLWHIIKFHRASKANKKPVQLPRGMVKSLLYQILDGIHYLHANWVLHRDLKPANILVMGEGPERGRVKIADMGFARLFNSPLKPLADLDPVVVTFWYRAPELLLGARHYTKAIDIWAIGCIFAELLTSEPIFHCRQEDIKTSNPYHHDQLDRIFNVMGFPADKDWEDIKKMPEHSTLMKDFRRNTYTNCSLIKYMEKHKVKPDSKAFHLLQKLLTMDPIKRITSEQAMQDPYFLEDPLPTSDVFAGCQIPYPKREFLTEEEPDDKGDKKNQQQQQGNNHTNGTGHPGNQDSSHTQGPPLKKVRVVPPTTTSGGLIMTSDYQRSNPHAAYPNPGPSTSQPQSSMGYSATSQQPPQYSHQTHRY
LIM domain kinase 1, sequence (P53667 whole entry, the tested form may be a part): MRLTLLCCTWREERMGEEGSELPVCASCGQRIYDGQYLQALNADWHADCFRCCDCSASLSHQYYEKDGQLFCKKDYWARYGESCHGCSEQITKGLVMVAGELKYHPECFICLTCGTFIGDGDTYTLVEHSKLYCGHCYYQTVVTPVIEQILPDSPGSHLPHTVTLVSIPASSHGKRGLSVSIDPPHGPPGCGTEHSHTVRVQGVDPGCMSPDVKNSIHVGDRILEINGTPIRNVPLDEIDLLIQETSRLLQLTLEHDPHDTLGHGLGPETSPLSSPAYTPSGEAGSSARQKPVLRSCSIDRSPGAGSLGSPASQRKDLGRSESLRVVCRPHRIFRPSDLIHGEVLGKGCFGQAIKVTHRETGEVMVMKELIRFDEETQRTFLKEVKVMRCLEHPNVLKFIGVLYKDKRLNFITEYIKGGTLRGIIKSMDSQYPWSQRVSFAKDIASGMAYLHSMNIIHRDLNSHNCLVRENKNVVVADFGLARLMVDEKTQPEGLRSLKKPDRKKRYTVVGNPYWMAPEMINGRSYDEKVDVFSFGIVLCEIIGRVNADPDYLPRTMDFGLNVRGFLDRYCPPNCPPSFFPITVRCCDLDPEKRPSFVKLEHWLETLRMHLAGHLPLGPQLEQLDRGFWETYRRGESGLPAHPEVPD

Compound	EC50 [2]	IC50 [10]	IC50 [11]	IC50 [12]	IC50 [13]	also measured
CC(Oc1ccccc1)C(=O)N(CCC1=CCCCC1)c1c(N)n(Cc2ccccc2)c(=O)[nH]c1=O (stereo not drawn)	15 µM (active)	–	–	–	–	EC50 [1]: > 112 µM (not active); EC50 [3]: > 112 µM (not active)
O=S(=O)(Nc1ccc2ccccc2c1O)c1ccc(F)cc1	–	–	–	–	–	Ki [4]: 2.51 µM (active); Ki [5]: 3.16 µM (active); Ki [6]: 3.16 µM (active); Ki [7]: 2.51 µM (active)
COc1cc(C2C(C#N)=C(N)Oc3cc(N)ccc32)cc(OC)c1OC (stereo not drawn)	13.5 µM (active)	–	–	–	–	IC50 [8]: > 80 µM (inactive)
CCOc1cccc(Oc2c(Cl)cnn(Cc3cccc4ccccc34)c2=O)c1	–	–	–	–	–	IC50 [9]: 18.8 µM (inactive)
Cc1c(C(=O)Nc2nc3ccccc3s2)oc2ccccc12	–	> 99 µM (inactive)	> 99 µM (inactive)	> 99 µM (inactive)	> 99 µM (inactive)	–
CCN(CC)S(=O)(=O)c1ccc(C(=O)Nc2nc3c(C)ccc(Cl)c3s2)cc1	–	> 99 µM (inactive)	> 99 µM (inactive)	> 99 µM (inactive)	> 99 µM (inactive)	–
